Some results are limits rather than exact numbers.

This assay relates to NCI-H295R. The assay can be described thus: IC50 (antiproliferative, ATP content). The note with it: 48 h. In outline:
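Adrenocortical carcinoma cells were plated at 1500 per well in 1536-well plates in serum-free DMEM with ITS supplement, left overnight, then given library compounds by pin transfer at 8 final concentrations spanning 0.6 nM to 46 µM and held 48 h at 37 °C, 5% CO2. ATP was measured as CellTiter-Glo luminescence after 20 min at room temperature and scaled between vehicle and positive-control wells. A four-parameter logistic model was fitted to each series. The IC50 was taken from these fits, and compounds without a concentration response were recorded as above the top dose.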
What is called IC50 is the concentration that inhibits the measured activity by half. A lower IC50 goes with greater potency. As to `COc1ccc(CC2c3cc(OC)c(OC)cc3CC[N+]2(C)CCC(=O)OCCCCCOC(=O)CC[N+]2(C)CCc3cc(OC)c(OC)cc3C2Cc2ccc(OC)c(OC)c2)cc1OC.O=S(=O)([O-])c1ccccc1.O=S(=O)([O-])c1ccccc1` (centres undefined), the IC50 was above 46 µM.
For `CCCCCCCC(=O)OCC(O)CO` (centres undefined), the IC50 was above 46 µM.
`OC[C@@H](O)[C@@H](O[C@@H]1O[C@H](CO)[C@H](O)[C@H](O)[C@H]1O)[C@H](O)[C@@H](O)CO` gave an IC50 above 46 µM.
In the case of `Cc1cnc(NC(=O)C2=C(O)c3ccccc3S(=O)(=O)N2C)s1`, the IC50 is above 46 µM.
`CC1(C)O[C@@H]2C[C@H]3[C@@H]4CCC5=CC(=O)C=C[C@]5(C)[C@H]4[C@@H](O)C[C@]3(C)[C@]2(C(=O)CO)O1` came in with an IC50 above 46 µM.
In turn, `COP(=O)(OC)OC(c1ccc(Cl)cc1)P(=O)(OC)OC` (centres undefined) showed an IC50 above 46 µM.
`COc1ccc(O)cc1` had an IC50 above 46 µM.
For `Cl.Nc1cc(Cl)c(NC2=NCCN2)c(Cl)c1`, the IC50 is above 46 µM.
The compound `O[C@@H]([C@H](C)NC)[C@@]1=CC=CC=C1.Cl` had an IC50 above 46 µM.
Consider `O=[N+]([O-])c1cc([As](=O)(O)O)ccc1O`, for which the half-maximal inhibitory concentration (IC50) was above 46 µM.
As for `c1ccc2sc(SNC3CCCCC3)nc2c1`, the IC50 is above 46 µM.
In turn, `CCOC(=O)C1=C(C)NC(C)=C(C(=O)OC)C1c1cccc([N+](=O)[O-])c1` (centres undefined) came in with an IC50 above 46 µM.
As for `Cc1ncsc1CCCl`, the IC50 is above 46 µM.
Compound `COC(=O)c1ccc(O)cc1` displayed an IC50 above 46 µM.
The result for `COC(C)(C)CCCC(C)C/C=C/C(C)=C/C(=O)OC(C)C` (centres undefined) reads above 46 µM; that for `CN(C(=O)CN(CCO)CC(=O)N(C)C(C)(C)Cc1ccccc1)C(C)(C)Cc1ccccc1`, above 46 µM.
Take `[S]=[Sb](=[S])[S][Sb](=[S])=[S]`: the IC50 is above 46 µM.
With `CC1CS(=O)(=O)CCN1/N=C/c1ccc([N+](=O)[O-])o1` (centres undefined), the IC50 is above 46 µM.
The result for `[C@]23([C@](OC(c1occc1)=O)([C@H](C)C[C@H]2[C@H]5[C@]([C@H](C3)O)([C@@]\4(\C(=C/C(/C=C/4)=O)CC5)C)Cl)C(=O)CCl)C` reads above 46 µM.
Regarding `Cc1cc(C)c(NC(=O)CN(CC(=O)O)CC(=O)O)c(C)c1Br`, the IC50 was above 46 µM.
`Cl.F/C(COc1ccc2c(c1)[nH]c1ccccc12)=C1\CN2CCC1CC2` displayed an IC50 above 46 µM.
For `COc1cc(S(C)=O)ccc1-c1nc2ncccc2[nH]1` (centres undefined), the IC50 is above 46 µM.
Turning to `C[C@H]1CC[C@]2(NC1)O[C@H]1C[C@H]3[C@@H]4CC[C@H]5C[C@@H](O)CC[C@]5(C)[C@H]4CC[C@]3(C)[C@H]1[C@@H]2C.Cl`, the IC50 was above 46 µM.
`N=C(N)c1ccc(OCCCCCOc2ccc(C(=N)N)cc2)cc1.O=S(=O)(O)CCO.O=S(=O)(O)CCO` returned an IC50 above 46 µM.
For `NC(N)=O`, the IC50 was above 46 µM.
As for `O=C3N1/C(=C(/Cl)CS[C@@H]1[C@@H]3NC(=O)[C@H](N)c2ccccc2)C(O)=O`, the concentration for half-maximal inhibition (IC50) was above 46 µM.
With `CC(C)(C)C(=O)OCOC(=O)[C@@H]1N2C(=O)[C@@H](/N=C/N3CCCCCC3)[C@H]2SC1(C)C.Cl`, the IC50 was above 46 µM.
`Cc1c(N(C)C)c(=O)n(-c2ccccc2)n1C` registered an IC50 above 46 µM.
Under `O=C(O)c1ccccc1-c1ccc(C(F)(F)F)cc1` stands above 46 µM.
Compound `O=C(O)CCc1nc2ccccc2[nH]1` registered an IC50 above 46 µM.
Under `OC1=C(C=C(/C=C(C#N)/C#N)C=C1)O` stands above 46 µM.
The result for `C1CCC(NC2CCCCC2)CC1` reads above 46 µM; that for `Nc1ncnc2c1ncn2[C@H]1CC[C@@H](CO)O1`, above 46 µM; that for `CN(C)[C@@H]1C(O)=C(C(N)=O)C(=O)[C@@]2(O)C(O)=C3C(=O)c4c(O)cccc4[C@@](C)(O)[C@H]3[C@H](O)[C@@H]12.Cl`, above 46 µM.
`COc1cc(C(=S)N2CCOCC2)ccc1O` showed an IC50 above 46 µM.
The result for `CN(C)CCC(O)(c1ccccc1)c1ccccc1Cl` (centres undefined) reads above 46 µM.
Compound `C=CCSCC1Nc2cc(Cl)c(S(N)(=O)=O)cc2S(=O)(=O)N1` (centres undefined) yielded an IC50 above 46 µM.
In turn, `Nc1nc(O)c(-c2ccccc2)o1` displayed an IC50 above 46 µM.
Turning to `NC(=O)c1cn(Cc2c(F)cccc2F)nn1`, the IC50 is above 46 µM.
In the case of `O[C@@H]1CC[C@@H](/C=C(C)/[C@H]([C@H](C)[C@@H](O)CC4=O)O[C@@]([C@H]2N(C(C([C@]3(O)O[C@H]([C@H](C[C@H](C/C(C)=C/[C@H]4CC=C)C)OC)[C@@H](OC)C[C@H]3C)=O)=O)CCCC2)=O)C[C@H]1OC`, the IC50 was above 46 µM.
Under `O=S(=O)([O-])CCS.[Na+]` stands above 46 µM; under `Cc1ncc(COP(=O)(O)O)c(C=O)c1O.O`, above 46 µM.
As to `O=C(CC)O[C@@]1([C@@]2=CC=CC=C2)[C@H](C)CN(C)CC1`, the IC50 was above 46 µM.
On to `CC[N+](C)(C)c1cccc(O)c1.[Cl-]`, for which the IC50 is above 46 µM.
`CCC1C(C)=NN=C(c2ccc(OC)c(OC)c2)c2cc(OC)c(OC)cc21` (centres undefined) had an IC50 above 46 µM.
Regarding `O=C([O-])Cc1ccccc1Nc1c(Cl)cccc1Cl.[Na+]`, the IC50 is above 46 µM.
In turn, `CN1C(=O)CC(c2ccccc2)C1=O` (centres undefined) showed an IC50 above 46 µM.
The result for `NC(=O)CN1CCCC1=O` reads above 46 µM.
The result for `CCCCNC(=O)NS(=O)(=O)c1ccc(C)cc1` reads above 46 µM.
`CCN(CC)CC1CCCCN1CC(=O)N1c2ccccc2C(=O)Nc2cccnc21` (centres undefined): the IC50 is above 46 µM.
For the compound `O=C1[C@@](CC2)(C)[C@@](C)(C)[C@H]2C1`, the IC50 is above 46 µM.
In turn, `C[C@@H](O)[C@H]1C(=O)N2C(C(=O)[O-])=C(SC3Cn4cnc[n+]4C3)[C@H](C)[C@H]12` (some centres undefined) displayed an IC50 above 46 µM.
The compound `CCCC[N@@+]1(C)[C@@H]2C[C@@H](OC(=O)[C@H](CO)c3ccccc3)C[C@H]1[C@@H]1O[C@@H]12.[Br-]` gave a half-maximal inhibitory concentration (IC50) above 46 µM.
Compound `COC1=CC=C2[C@H]3Cc4ccc(OC)c5c4[C@@]2(CCN3C)[C@H]1O5` showed an IC50 above 46 µM.
The result for `[H][C@@]1(CC\C3=C(C4=CC=CS4)/C2=CC=CS2)[N@+](CCCC1)(C3)C.[Br-]` reads above 46 µM; that for `CCCCCCCCCCCCCCCC(=O)O`, above 46 µM; that for `CN1CCCC(CC2c3ccccc3Sc3ccccc32)C1.Cl` (centres undefined), above 46 µM.
As for `Cc1cc(O)ccc1Cl`, the IC50 is above 46 µM.
The result for `CCNC(=O)N(CCCN(C)C)C(=O)[C@@H]1C[C@@H]2c3cccc4N\C=C(\C[C@H]2N(C1)CC=C)c34` reads above 46 µM.
The compound `C=CCN1CC[C@]23c4c5ccc(O)c4O[C@H]2C(=O)CC[C@@]3(O)[C@H]1C5` yielded an IC50 above 46 µM.
Compound `CCOc1ccc(NC(=S)Nc2ccc(OCC)cc2)cc1` registered an IC50 above 46 µM.
`CCOC(=O)n1ccn(C)c1=S` had an IC50 above 46 µM.
Consider `Cc1cc(C)c(C=C2C(=O)Nc3ccccc32)[nH]1`, for which the IC50 is above 46 µM.
Take `CC(C)(C)NCC(O)c1cc(O)cc(O)c1.CC(C)(C)NCC(O)c1cc(O)cc(O)c1.O=S(=O)(O)O` (centres undefined): the IC50 is above 46 µM.
`C1CNCCN1.C[C@H](CCC(=O)O)[C@H]1CC[C@H]2[C@@H]3[C@H](O)C[C@@H]4C[C@H](O)CC[C@]4(C)[C@H]3C[C@H](O)[C@]12C`: the IC50 is above 46 µM.
Take `CC1=C(CC(=O)O)c2cc(F)ccc2/C1=C\c1ccc(S(C)=O)cc1` (centres undefined): the IC50 is above 46 µM.
Take `[O-][n+]1cccc(CO)c1`: the IC50 was above 46 µM.
The compound `CC(=O)Oc1cc(C(F)(F)F)ccc1C(=O)O` displayed an IC50 above 46 µM.
As for `C[N+](C)(C)CC(O)CC(=O)[O-].Cl` (centres undefined), the IC50 was above 46 µM.
Turning to `Cc1cccc(C)c1NC(=O)CN1CCCC1`, the IC50 was above 46 µM.
`CCOC(C)=O` came in with an IC50 above 46 µM.
Turning to `CCOc1cc(CC(=O)N[C@@H](CC(C)C)c2ccccc2N2CCCCC2)ccc1C(=O)O`, the IC50 is above 46 µM.
`CC(C)CCOC(=O)c1ccc(N(C)C)cc1` displayed an IC50 above 46 µM.
In turn, `FC(F)(F)C(F)(F)C(F)(F)C(F)(F)C(F)(F)C(F)(F)C(F)(F)C(F)(F)Br` displayed an IC50 above 46 µM.
Under `O[C@H]([C@@]1=CC=CC=C1)[C@H](C)N(C)C` stands above 46 µM; under `OC[C@H]1O[C@@H](O[C@@H]2[C@@H](CO)O[C@](O)(CO)[C@H]2O)[C@H](O)[C@@H](O)[C@H]1O`, above 46 µM; under `CCCCCCc1ccc(O)cc1O`, above 46 µM.
The result for `CC[NH+](CC)CCc1nc(-c2ccccc2)no1.O=C([O-])CC(O)(CC(=O)O)C(=O)O` reads above 46 µM; that for `CCCCCCCCCCCCCCCCCC(=O)OC[C@@H](O)[C@H]1OC[C@H](O)[C@H]1O`, above 46 µM.
Take `CCC1=C(C)CN(C(=O)NCCc2ccc(S(=O)(=O)NC(=O)N[C@H]3CC[C@H](C)CC3)cc2)C1=O`: the IC50 was above 46 µM.
For the compound `CCN(CC)CCNC(=O)COc1ccc(OC)cc1.Cl`, the IC50 was above 46 µM.
For `O=[C@](C)[C@@H]3[C@](CC2)(C)[C@](CC3)([H])[C@@]1([H])[C@@]2([H])[C@](CC[C@H](O)C4)(C)C4=CC1`, the IC50 is above 46 µM.
`Cl.NCCc1cc(O)c(O)cc1O`: the IC50 is above 46 µM.
`Cc1c(I)c(=O)n(-c2ccccc2)n1C` returned an IC50 above 46 µM.
Under `CN1CCN(C2=Nc3cc(F)ccc3Cc3ccccc32)CC1` stands above 46 µM; under `CCCOc1ccccc1-c1nc2[nH]nnc2c(=O)[nH]1`, above 46 µM.
Under `C=CCN(C1=NCCN1)c1c(Cl)cccc1Cl` stands above 46 µM; under `CCN(CC)CCN1C(=O)CN=C(c2ccccc2F)c2cc(Cl)ccc21`, above 46 µM; under `N\1(C(NC(/C(=C/1)C)=O)=O)[C@@H]2O[C@H](CO)[C@H](C2)O`, above 46 µM.

The record behind these values is the supplement of paper PMC3493320.
